Experimental data: the supplement of paper PMC11451515

Tested on: SEM cells
Test: cell viability relative to DMSO control; higher = less cytotoxic
Settings: 48 h
In short: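 Before seeding, each leukemia line was adapted for at least four passages in each medium. NOMO1 or SEM cells (500 cells/well) and P12-Ichikawa cells (1000 cells/well) went into 1536-well plates at 5 μl, then received library compounds in DMSO by pin dosing across 11 threefold concentrations, 47 μM to 0.79 nM. Readout was CellTiter-Glo One luminescence after 48 h at 37°C, and viability is given as a per-plate percentage of DMSO wells, with cell-free wells as background.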

[1] = HPLM + 10% dialyzed FBS, 0.000781 µM
[2] = HPLM + 10% dialyzed FBS, 0.00234 µM
[3] = HPLM + 10% dialyzed FBS, 0.00702 µM
[4] = HPLM + 10% dialyzed FBS, 0.0211 µM
[5] = HPLM + 10% dialyzed FBS, 0.0632 µM
[6] = HPLM + 10% dialyzed FBS, 0.19 µM
[7] = HPLM + 10% dialyzed FBS, 0.569 µM
[8] = HPLM + 10% dialyzed FBS, 1.71 µM
[9] = HPLM + 10% dialyzed FBS, 5.12 µM
[10] = HPLM + 10% dialyzed FBS, 15.4 µM
[11] = HPLM + 10% dialyzed FBS, 46.1 µM
[12] = RPMI 5 mM glucose + 10% FBS, 0.000781 µM
[13] = RPMI 5 mM glucose + 10% FBS, 0.00234 µM
[14] = RPMI 5 mM glucose + 10% FBS, 0.00702 µM
[15] = RPMI 5 mM glucose + 10% FBS, 0.0211 µM
[16] = RPMI 5 mM glucose + 10% FBS, 0.0632 µM
[17] = RPMI 5 mM glucose + 10% FBS, 0.19 µM
[18] = RPMI 5 mM glucose + 10% FBS, 0.569 µM
[19] = RPMI 5 mM glucose + 10% FBS, 1.71 µM
[20] = RPMI 5 mM glucose + 10% FBS, 5.12 µM
[21] = RPMI 5 mM glucose + 10% FBS, 15.4 µM
[22] = RPMI 5 mM glucose + 10% FBS, 46.1 µM
[23] = RPMI 5 mM glucose + 10% dialyzed FBS, 0.000781 µM
[24] = RPMI 5 mM glucose + 10% dialyzed FBS, 0.00234 µM
[25] = RPMI 5 mM glucose + 10% dialyzed FBS, 0.00702 µM
[26] = RPMI 5 mM glucose + 10% dialyzed FBS, 0.0211 µM
[27] = RPMI 5 mM glucose + 10% dialyzed FBS, 0.0632 µM
[28] = RPMI 5 mM glucose + 10% dialyzed FBS, 0.19 µM
[29] = RPMI 5 mM glucose + 10% dialyzed FBS, 0.569 µM
[30] = RPMI 5 mM glucose + 10% dialyzed FBS, 1.71 µM
[31] = RPMI 5 mM glucose + 10% dialyzed FBS, 5.12 µM
[32] = RPMI 5 mM glucose + 10% dialyzed FBS, 15.4 µM
[33] = RPMI 5 mM glucose + 10% dialyzed FBS, 46.1 µM

SMILES	cell viability [1] [%]	cell viability [2] [%]	cell viability [3] [%]	cell viability [4] [%]	cell viability [5] [%]	cell viability [6] [%]	cell viability [7] [%]	cell viability [8] [%]	cell viability [9] [%]	cell viability [10] [%]	cell viability [11] [%]	cell viability [12] [%]	cell viability [13] [%]	cell viability [14] [%]	cell viability [15] [%]	cell viability [16] [%]	cell viability [17] [%]	cell viability [18] [%]	cell viability [19] [%]	cell viability [20] [%]	cell viability [21] [%]	cell viability [22] [%]	cell viability [23] [%]	cell viability [24] [%]	cell viability [25] [%]	cell viability [26] [%]	cell viability [27] [%]	cell viability [28] [%]	cell viability [29] [%]	cell viability [30] [%]	cell viability [31] [%]	cell viability [32] [%]	cell viability [33] [%]
C[C@]12CCC(=O)C=C1CC[C@@H]1[C@@H]2CC[C@@]2(C)[C@H]1CC[C@]2(C)O	93.6	72.8	86.5	29.9	86.7	91.1	68.3	84.9	90.9	65.6	78.7	101	105	97.3	29.8	98.1	95.5	96.1	74.3	102	95.8	85.4	95.5	82.2	86.9	41.9	95.2	98.6	107	99.7	100	98.9	97.4
Cc1cn([C@@H]2O[C@H](CO)[C@@H](O)[C@@H]2F)c(=O)[nH]c1=O	74.5	103	102	101	110	104	110	116	116	104	95	101	102	103	93.4	122	107	108	113	117	122	119	77	111	92.3	109	127	122	108	105	124	93.5	92.7
CCOC(=O)C/1=C(O)/C(=O)N(CC2=CC=CC=C2)C1	97.8	98.5	98	91	110	108	108	120	111	106	86.1	99	104	94.4	90.1	111	111	99.4	99.2	98.3	94.9	83.9	119	113	105	125	109	111	108	125	108	106	93.7
O=C(Nc1c(Cl)cncc1Cl)c1ccc(OC(F)F)c(OCC2CC2)c1	93.8	90.5	94.2	96.8	105	102	109	110	100	90.6	107	86.3	93.9	107	82	90.4	97.4	95.4	93.6	93.5	101	103	92.4	90.5	102	87.6	96.6	94.3	102	111	101	85.8	85.7
CC(C)C[C@H](NC(=O)[C@H](CCc1ccccc1)NC(=O)CN1CCOCC1)C(=O)N[C@@H](Cc1ccccc1)C(=O)N[C@@H](CC(C)C)C(=O)[C@@]1(C)CO1	84.6	86.5	100	8.14	7.13	7.08	6.63	5.14	4.16	1.67	1.47	97.5	102	65.7	8.2	7.68	6.95	7.46	4.9	2.81	1.52	1.37	72.1	81.7	80.6	8.46	7.46	7.29	6.73	4.71	3.02	1.73	1.54
S=P(N1CC1)(N1CC1)N1CC1	102	106	110	96.7	104	107	103	98.5	85.1	93.3	39												99.6	108	106	105	105	107	93.6	90.4	95.1	78.5	41.5
CN[C@@H]1[C@H](O)[C@H](NC)[C@H]2O[C@@]3(O)C(=O)C[C@@H](C)O[C@H]3O[C@@H]2[C@H]1O	119	125	122	123	121	120	118	122	113	115	109	120	110	126	117	115	113	123	110	104	104	104											
